Publication PMC8745332, “Synthesis, Molecular Docking and Biological Characterization of Pyrazine Linked 2-Aminobenzamides as New Class I Selective Histone Deacetylase (HDAC) Inhibitors with Anti-Leukemic Activity” (International Journal of Molecular Sciences, 2021)

Legend:
HEL cells = test: Cytotoxicity/apoptosis in HEL cells expressing JAK2V617F, annexin V-FITC/PI flow cytometry; assay type: cell-based, human
Description: (B) Cells were stained with annexin V-FITC/PI and analyzed via flow cytometry. […] IC50 values were determined for 19f. Results represent three independent experiments.
This erythroleukemia cell model carries a mutation in Janus kinase-2 (JAK2V617F) and HDACi are considered as therapeutic options to control the transformation of this disease into AML [53].
All leukemic cells were kept in RPMI-1640 medium supplemented with 10% FBS and 1%penicillin/streptomycin (Sigma-Aldrich, Taufkirchen, Germany) under standard culture conditions at 37 °C and a 5% CO2 humidified atmosphere. Cells were authenticated as mentioned by us.

human HDAC8 = biological target: T1, human HDAC8 (Homo sapiens, UniProt Q9BY41); test: HDAC8 homogenous fluorescence assay with ZMAL substrate; assay type: biochemical; details: read-out: HDAC8 (% Inhib.)
T1 construct: made in house
T1 sequence (Q9BY41 1-377): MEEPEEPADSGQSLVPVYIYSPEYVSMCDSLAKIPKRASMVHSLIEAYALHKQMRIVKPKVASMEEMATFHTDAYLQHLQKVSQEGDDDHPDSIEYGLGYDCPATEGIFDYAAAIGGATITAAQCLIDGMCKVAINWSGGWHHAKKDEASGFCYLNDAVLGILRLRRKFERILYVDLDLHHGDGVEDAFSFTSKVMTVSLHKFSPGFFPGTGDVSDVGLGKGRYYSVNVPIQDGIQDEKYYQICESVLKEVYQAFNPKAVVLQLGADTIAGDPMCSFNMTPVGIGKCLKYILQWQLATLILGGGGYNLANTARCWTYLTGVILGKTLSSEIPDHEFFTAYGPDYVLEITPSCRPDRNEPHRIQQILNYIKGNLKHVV
Description: Recombinant human HDAC1, HDAC2, and HDAC3/NCOR1 were purchased from ENZO Life Sciences AG (Lausen, CH). Recombinant human HDAC 4, HDAC5, HDAC7, HDAC9 and HDAC11 were produced by Barinka lab in Prague, as described before. Recombinant human HDAC8 was produced by Romier et al. (IGBMC, Univ. Strasbourg), as described in [55].
Fluorescence intensity was measured at an excitation wavelength of 390 nm and an emission wavelength of 460 nm in a microtiter plate reader (BMG Polarstar).

Structure (SMILES): Nc1ccccc1NC(=O)c1cnc(N2CCN(Cc3c[nH]c4ccccc34)CC2)cn1 [19f, 5-(4-((1H-indol-3-yl)methyl)piperazin-1-yl)-N-(2-aminophenyl)pyrazine-2-carboxamide]
- apoptosis in HEL cell cultures (HEL cells; 0.5 µM, 48 h): 26%
- IC50 (HEL cells; Homo sapiens, 0.25 µM to 5 µM, 24 h, read-out: IC50 for toxic effects on HEL cells): 925 nM
- inhibition at 1 µM (human HDAC8): 0%
